From US20160227774A1 (priority 2015, published 2016)
Several values for one entry are separate records, joined by “and”; a condition that tells them apart may be missing. Equal values may be shown once. Where a name gives a salt, the structure may show the parent alone. Read-outs that look alike come from different tables or passages of the source.

How the values were obtained:
[1] = tested on: β-1,3-glucanase gene (PR-2), calS1, pp2; type: in vivo, Citrus sinensis; conditions: for PR-2, calS1 or pp2 gene expression (in words): AA 60 μM, INA 0.1 mM
HLB disease = assay: Trial I (Example 3): HLB disease severity (sAUDPS), Midsweet orange, foliar spray; type: in vivo, Citrus sinensis; conditions: end of the experiment
[2] = tested on: Candidatus Liberibacter asiaticus (Las); type: in vivo
[3] = tested on: Candidatus Liberibacter asiaticus (Las); type: in vivo; conditions: Example 6; Valencia sweet orange (4-year); BABA 0.2-1.0 mM, 2-DDG 100 μM; foliar spraying
[4] = tested on: Candidatus Liberibacter asiaticus (Las); type: in vivo; remark: listed apart in the source
[5] = tested on: Candidatus Liberibacter asiaticus (Las); type: in vivo; conditions: BABA 1.0 mM, 2-DDG 100 μM; for Reduction of Las titer compared to control at the end of the experiments: Example 5, Murcott mandarin (10-year), foliar spraying
[6] = tested on: Ca. Liberibacter asiaticus; type: in vivo, Candidatus Liberibacter asiaticus; conditions: for CT, 1 (mean CT values 1-week after injection) / CT, 0 (mean CT values prior to injection): 4 trees; for CT, 0 (mean CT values prior to injection): baseline; for Effect on Las bacterial populations (in words): second trial, statistical significance only in the first trial
[7] = tested on: β-1,3-glucanase gene (PR-2), calS1, pp2; type: in vivo, Citrus sinensis; conditions: 2-DDG 100 μM
Midsweet orange [8] = tested on: Midsweet orange; set-up: species or system Citrus sinensis; conditions: in vivo
Midsweet orange [9] = type: in vivo, Citrus sinensis; conditions: BABA 150 μM, INA 0.5 mM, AA 600 μM, CuSO4 0.3 mM, alone or combined
[10] = November 2013, BABA 15 μM, INA 0.1 mM, AA 60 μM
[11] = November 2013, BABA 0.2 mM, INA 0.1 mM, AA 60 μM, 2-DDG 10 μM
[12] = November 2013, BABA 1.0 mM, INA 0.5 mM, BTH 1.0 mM, AA 600 μM, 2-DDG 100 μM, alone or combined
[13] = October 2014 (end of the experiment), BABA 0.2 mM, INA 0.1 mM, AA 60 μM, 2-DDG 10 μM
[14] = October 2014 (end of the experiment), BABA 1.0 mM, INA 0.5 mM, BTH 1.0 mM, AA 600 μM, 2-DDG 100 μM, alone or combined
[15] = Trial 2 (September, 2014), trunk injection SA 8, OTC 7, OA, PPD, ICD, AA, BABA 5 mg ai/tree
[16] = Trial 1 (July, 2014), trunk injection SA 32, OA 40, PPD 40, ICD 67, OTC 50 mg ai/tree

| Structure (SMILES) | Las population [4, 11] | Las population [4, 13] | ΔCT = CT, 1 − CT, 0 [6, 15] | CT, 1 (mean CT values 1-week after injection) [6, 15] | CT, 0 (mean CT values prior to injection) [6, 15] | Effect on Las bacterial titer versus control one week after injection (in words) ([6]; trunk injection, both trials) | ΔCT = CT, 1 − CT, 0 [6, 16] | CT, 1 (mean CT values 1-week after injection) [6, 16] | CT, 0 (mean CT values prior to injection) [6, 16] | other results |
| --- | --- | --- | --- | --- | --- | --- | --- | --- | --- | --- |
| CC(N)CC(=O)O (racemic) [BABA, β-aminobutyric acid] | (3.45 ± 0.32) × 10^6 Cells/g of plant tissue | (5.84 ± 0.25) × 10^6 Cells/g of plant tissue | 0.50 | 22.60 | 22.10 | greatly decreased | – | – | – | PR-2 gene expression (in words) ([1]; BABA 150 μM, 6 days after treatment): no significant change; PR-2 gene expression compared to the negative control ([1]; in vivo): 3.0 fold; pp2 (phloem protein-2) or calS1 expression (in words) ([1]; in vivo): no effect; HLB disease severity (sAUDPS) reduced by, compared with the negative control (HLB disease; AA 60 μM, BABA 15 μM): 28.6%; HLB disease severity (sAUDPS) reduced by, compared with the negative control (HLB disease; BABA 150 μM): 21.4%; Reduction of Las titer compared to control at the end of the experiments ([2]; Example 3, Midsweet orange (7-year), BABA 15 μM-150 μM, foliar spraying): 0.63 log unit per gram plant tissue; Las population [2, 10]: (3.67 ± 0.59) × 10^6 Cells/g of plant tissue; Las population ([2]; November 2013, BABA 150 μM): (6.48 ± 0.61) × 10^6 Cells/g of plant tissue; Reduction of Las titer compared to control at the end of the experiments [3]: 0.68 log unit per gram plant tissue; Reduction of Las titer compared to control at the end of the experiments ([4]; Example 4, Midsweet orange (8-year), BABA 0.2 mM, foliar spraying): 0.66 log unit per gram plant tissue; Las population [4, 12]: (4.23 ± 1.22) × 10^6 Cells/g of plant tissue; Las population [4, 14]: (0.95 ± 0.26) × 10^7 Cells/g of plant tissue; Reduction of Las titer compared to control at the end of the experiments [5]: 0.66 log unit per gram plant tissue |
| O=CC[C@@H](O)[C@H](O)[C@H](O)CO [2-DDG, 2-deoxy-D-glucose] | (4.45 ± 0.94) × 10^6 Cells/g of plant tissue | (0.91 ± 0.32) × 10^7 Cells/g of plant tissue | – | – | – | – | – | – | – | PR-2, pp2 or calS1 induction (in words) [7]: not able to induce; Fruit acidity (Midsweet orange [8]): 0.73 a percent citric acid and 0.67 a percent citric acid and 0.69 a percent citric acid and 0.66 a percent citric acid; Fruit brix (Midsweet orange [8]): 9.63 a and 10.41 a and 9.20 a and 10.10 a; Fruit brix acidity ratio (Midsweet orange [8]): 15.19 a and 13.19 a and 15.17 a and 13.33 a; Reduction of Las titer compared to control at the end of the experiments [3]: 0.70 log unit per gram plant tissue; Las population [4, 12]: (2.64 ± 0.76) × 10^6 Cells/g of plant tissue; Las population [4, 14]: (4.17 ± 1.02) × 10^6 Cells/g of plant tissue; Reduction of Las titer compared to control at the end of the experiments [5]: 0.66 log unit per gram plant tissue |
| O=C1O[C@H]([C@@H](O)CO)C([O-])=C1O.[Na+] [AA, L-Ascorbic acid sodium salt, reference compound] | (2.99 ± 0.95) × 10^6 Cells/g of plant tissue | (3.98 ± 0.81) × 10^6 Cells/g of plant tissue | −0.50 | 21.65 | 22.15 | – | – | – | – | PR-2, calS1 or pp2 gene expression (in words) [1]: not able to induce; HLB disease severity (sAUDPS) reduced by, compared with the negative control (HLB disease; AA 60 μM, BABA 15 μM): 21.3%; Fruit brix acidity ratio (Midsweet orange [8]; sodium salt): 14.87 a and 12.55 a; Percent juice content (Midsweet orange [8]; sodium salt): 53.3 a and 51.1 a; Las population [2, 10]: (3.56 ± 0.57) × 10^6 Cells/g of plant tissue; Las population ([5]; Feb.2015, AA 600 μM, INA 0.5 mM, BTH 1.0 mM): (3.12 ± 0.22) × 10^7 a Cells/g of leaf tissue |
| CSC(=O)c1cccc2nnsc12 [ASM, acibenzolar-S-methyl] | – | – | – | – | – | – | – | – | – | Effect on Las bacterial populations (in words) ([6]; trunk injection): moderately reduced |
| O=S(=O)([O-])[O-].[Cu+2] [CuSO4, Copper Sulphate] | – | – | – | – | – | – | – | – | – | Yield (Midsweet orange [9]; 2013): 28.4 c kg/tree; Yield (Midsweet orange [9]; 2014): 24.1 c kg/tree |
| O=[N+]([O-])NC1=NCCN1Cc1ccc(Cl)nc1 [ICD, imidacloprid] | – | – | 0.13 | 24.02 | 23.89 | – | 0.08 | 24.50 | 24.42 | Effect on Las bacterial titer versus control one week after injection (in words) ([6]; in vivo): did not statistically significantly reduce |
| O=C(O)c1cc(Cl)nc(Cl)c1 [INA, 2,6-dichloro-isonicotinic acid, reference compound] | (2.07 ± 0.33) × 10^6 Cells/g of plant tissue | (3.91 ± 0.85) × 10^6 Cells/g of plant tissue | – | – | – | did not statistically significantly reduce | – | – | – | PR-2, calS1 or pp2 gene expression (in words) [1]: not able to induce; Percent juice content (Midsweet orange [8]): 50.5 a and 51.1 a; Las population [2, 10]: (4.06 ± 0.25) × 10^6 Cells/g of plant tissue; Las population ([2]; October 2014 (end of the experiment), BABA 15 μM, INA 0.1 mM, AA 60 μM): (5.94 ± 0.36) × 10^6 Cells/g of plant tissue |
| O=C(O)C(=O)O [OA, oxalic acid] | – | – | 0.70 | 26.17 | 25.47 | significantly reduced | 2.83 | 26.59 | 23.76 | ΔCT compared with that of OTC (in words) ([6]; trunk injection): not significantly different |
| CN(C)[C@@H]1C(O)=C(C(N)=O)C(=O)[C@@]2(O)C(O)=C3C(=O)c4c(O)cccc4[C@@](C)(O)[C@H]3[C@H](O)[C@@H]12 [OTC, oxytetracycline hydrochloride, reference compound] | – | – | 0.90 | 25.54 | 24.64 | – | 1.33 | 29.28 | 27.95 | – |
| O=P([O-])([O-])O.[K+].[K+] [PPD, potassium phosphate dibasic, reference compound] | – | – | 0.34 | 23.63 | 23.29 | – | 2.64 | 26.56 | 23.92 | Effect on Las bacterial populations (in words) ([6]; trunk injection): moderately reduced |
| O=C(O)c1ccccc1O [SA, salicylic acid] | – | – | 0.95 | 24.88 | 23.93 | significantly reduced | 1.73 | 25.34 | 23.61 | ΔCT compared with that of OTC (in words) ([6]; trunk injection): not significantly different |
